Assay results as given in paper PMC10114980, “Triple targeting of mutant EGFR^L858R/T790M, COX-2, and 15-LOX: design and synthesis of novel quinazolinone tethered phenyl urea derivatives for anti-inflammatory and anticancer evaluation” (Journal of Enzyme Inhibition and Medicinal Chemistry, 2023).

Key:
human recombinant COX-2 = biological target: T1, human recombinant COX-2 (Homo sapiens, UniProt P35354); assay: In vitro COX-2 inhibition assay kit (Cayman); assay type: biochemical; settings: for COX-2 SI: Selectivity index = COX-1 IC50/COX-2 IC50; for IC50: human recombinant COX-2, mean ± SEM, n = 3 replicates
T1 sequence (P35354 18-604): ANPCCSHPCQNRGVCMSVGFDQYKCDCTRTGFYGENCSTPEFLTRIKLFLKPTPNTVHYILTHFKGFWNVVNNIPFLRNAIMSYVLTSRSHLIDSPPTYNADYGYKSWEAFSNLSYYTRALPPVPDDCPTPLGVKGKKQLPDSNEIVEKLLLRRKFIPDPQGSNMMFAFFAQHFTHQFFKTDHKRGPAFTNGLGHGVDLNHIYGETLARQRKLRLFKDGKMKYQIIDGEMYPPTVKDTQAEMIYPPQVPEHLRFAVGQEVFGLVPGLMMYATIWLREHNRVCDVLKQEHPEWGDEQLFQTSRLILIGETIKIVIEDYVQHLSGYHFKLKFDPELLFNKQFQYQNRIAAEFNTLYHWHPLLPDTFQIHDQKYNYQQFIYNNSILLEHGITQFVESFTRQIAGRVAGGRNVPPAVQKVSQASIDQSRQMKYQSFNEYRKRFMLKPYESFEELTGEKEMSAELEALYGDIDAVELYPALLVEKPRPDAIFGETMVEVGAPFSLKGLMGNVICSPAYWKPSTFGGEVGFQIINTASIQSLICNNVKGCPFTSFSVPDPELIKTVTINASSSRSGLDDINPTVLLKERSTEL
Protocol: The half-maximal inhibitory concentration (IC50, μM) was determined, and the COX-2 selectivity index (SI) was calculated as IC50 (COX-1)/IC50 (COX-2).

[1] = tested on: LPS-induced ROS production in RAW 264.7 cells; assay: ROS production in LPS-activated RAW 264.7 macrophage cells (DCFH-DA); assay type: cell-based; settings: Mus musculus, RAW264.7; LPS-activated RAW 264.7 cells; mean ± SEM, three replicates
Protocol: TNF-α and IL-6 production were detected in RAW 264.7 macrophage cell culture supernatants following the induction of inflammation by LPS. Moreover, the probes of oxidative species 2,7-dichlorofluorescein diacetate (DCFH-DA) (Molecular Probes) and NO, 4-amino-5-methylamino-2,7-difluorofluorescein diacetate (DAF-FM diacetate) (Molecular Probes) were used to investigate the antioxidant and NO production inhibitory potential of the test compounds. Briefly, RAW 264.7 cells were cultured in black 96 well plates (200 000 cells/mL, 100 µl/well) for 24 h followed by the incubation with the individual test compounds or the reference drugs at different concentrations (12.5, 25, 50, and 100 µM) for 2 h at 37 °C. LPS was then added at a final concentration of 1 µg/mL for an additional 18 h. The cell culture supernatant was collected from cells treated with the different compounds at 25 µM to measure TNF-α and IL-6 levels (1:10 dilution) using DuoSet ELISA kits (R&D Systems, Minneapolis, MN) following the manufacturer’s instructions. Then, the plates were washed to perform ROS and NO detection assays as detailed in our previous studies[16]^,[27].

HL-60(TB) = assay: NCI single dose screen, HL-60(TB); assay type: cell-based; settings: Homo sapiens, leukaemia, single dose 10^−5 M, read-out: growth inhibition percentage
Protocol: (§1) Screening of the anticancer activity of the newly synthesised compounds (6a, 6c, 6d, 6e, 6j, 6l, 6m, 6n, 6o, and 6p) was performed by the US National Cancer Institute (NCI) using 60 different human tumour cell lines in accordance with standard procedures formerly reported.
(§2) In vitro anticancer screening was carried out for the selected compounds at a single dose (10^−5 M) against 60 different human tumour cell lines of nine different cancer cell types: leukaemia, lung, colon, CNS, melanoma, ovarian, renal, prostate, and breast cancers.

MOLT-4 = assay: NCI single dose screen, MOLT-4; assay type: cell-based; settings: Homo sapiens; MOLT-4, leukaemia; single dose 10^−5 M; read-out: growth inhibition percentage
Protocol: as §1, §2

EKVX = assay: NCI single dose screen, EKVX; assay type: cell-based; settings: Homo sapiens, non-small cell lung cancer, single dose 10^−5 M, read-out: growth inhibition percentage
Protocol: as §1, §2

HOP-62 = assay: NCI single dose screen, HOP-62; assay type: cell-based; settings: Homo sapiens; HOP-62, non-small cell lung cancer; single dose 10^−5 M; read-out: growth inhibition percentage
Protocol: as §1, §2

NCI-H226 = assay: NCI single dose screen, NCI-H226; assay type: cell-based; settings: Homo sapiens; NCI-H226, non-small cell lung cancer; single dose 10^−5 M; read-out: growth inhibition percentage
Protocol: as §1, §2

NCI-H322M = assay: NCI single dose screen, NCI-H322M; assay type: cell-based; settings: Homo sapiens, non-small cell lung cancer, single dose 10^−5 M, read-out: growth inhibition percentage
Protocol: as §1, §2

HCC-2998 = assay: NCI single dose screen, HCC-2998; assay type: cell-based; settings: Homo sapiens; HCC-2998, colon cancer; single dose 10^−5 M; read-out: growth inhibition percentage
Protocol: as §1, §2

HCT-15 = assay: NCI single dose screen, HCT-15; assay type: cell-based; settings: Homo sapiens; HCT-15, colon cancer; single dose 10^−5 M; read-out: growth inhibition percentage
Protocol: as §1, §2

HT29 = assay: NCI single dose screen, HT29; assay type: cell-based; settings: Homo sapiens, HT-29; HT29, colon cancer; single dose 10^−5 M; read-out: growth inhibition percentage
Protocol: as §1, §2

SK-MEL-2 = assay: NCI single dose screen, SK-MEL-2; assay type: cell-based; settings: Homo sapiens; SK-MEL-2, melanoma; single dose 10^−5 M; read-out: growth inhibition percentage
Protocol: as §1, §2

UACC-62 = assay: NCI single dose screen, UACC-62; assay type: cell-based; settings: Homo sapiens; UACC-62, melanoma; single dose 10^−5 M; read-out: growth inhibition percentage
Protocol: as §1, §2

IGROV1 = assay: NCI single dose screen, IGROV1; assay type: cell-based; settings: Homo sapiens, IGROV-1; IGROV1, ovarian cancer; single dose 10^−5 M; read-out: growth inhibition percentage
Protocol: as §1, §2

OVCAR-5 = assay: NCI single dose screen, OVCAR-5; assay type: cell-based; settings: Homo sapiens; OVCAR-5, ovarian cancer; single dose 10^−5 M; read-out: growth inhibition percentage
Protocol: as §1, §2

786-0 = assay: NCI single dose screen, 786-0; assay type: cell-based; settings: Homo sapiens; 786-0, renal cancer; single dose 10^−5 M; read-out: growth inhibition percentage
Protocol: as §1, §2

A498 = assay: NCI single dose screen, A498; assay type: cell-based; settings: Homo sapiens; A498, renal cancer; single dose 10^−5 M; read-out: growth inhibition percentage
Protocol: as §1, §2

RXF 393 = assay: NCI single dose screen, RXF 393; assay type: cell-based; settings: Homo sapiens; RXF 393, renal cancer; single dose 10^−5 M; read-out: growth inhibition percentage
Protocol: as §1, §2

TK-10 = assay: NCI single dose screen, TK-10; assay type: cell-based; settings: Homo sapiens; TK-10, renal cancer; single dose 10^−5 M; read-out: growth inhibition percentage
Protocol: as §1, §2

T-47D = assay: NCI single dose screen, T-47D; assay type: cell-based; settings: Homo sapiens, T47D, breast cancer, single dose 10^−5 M, read-out: growth inhibition percentage
Protocol: as §1, §2

Compound	IC50 (human recombinant COX-2)	IC50 [1]	inhibition at 10 µM (HL-60(TB))	inhibition at 10 µM (MOLT-4)	inhibition at 10 µM (EKVX)	inhibition at 10 µM (HOP-62)	inhibition at 10 µM (NCI-H226)	inhibition at 10 µM (NCI-H322M)	inhibition at 10 µM (HCC-2998)	inhibition at 10 µM (HCT-15)	inhibition at 10 µM (HT29)	inhibition at 10 µM (SK-MEL-2)	inhibition at 10 µM (UACC-62)	inhibition at 10 µM (IGROV1)	inhibition at 10 µM (OVCAR-5)	inhibition at 10 µM (786-0)	inhibition at 10 µM (A498)	inhibition at 10 µM (RXF 393)	inhibition at 10 µM (TK-10)	inhibition at 10 µM (T-47D)	further results
CC1N(NC(=O)Nc2ccc(F)cc2)C(=O)c2ccccc2N1C (centres unmarked) [Compound 6l, 1–(1,2-Dimethyl-4-oxo-1,4-dihydroquinazolin-3(2H)-yl)-3-(4-fluorophenyl)urea]	1.49 ± 1.11 µM	37.9 ± 1 µM	< 10%	< 10%	< 10%	< 10%	< 10%	< 10%	< 10%	< 10%	< 10%	< 10%	< 10%	< 10%	< 10%	< 10%	< 10%	< 10%	15.4%	< 10%	COX-2 SI (human recombinant COX-2): 0.05
CN1c2ccccc2C(=O)N(NC(=O)Nc2ccc(F)cc2)C1c1ccccc1 (centres unmarked) [Compound 6m, 1-(4-Fluorophenyl)-3-(1-methyl-4-oxo-2-phenyl-1,4-dihydroquinazolin-3(2H)-yl)urea]	3.16 ± 1.22 µM	57.2 ± 1 µM	< 10%	23.5%	10.5%	< 10%	< 10%	< 10%	< 10%	14.3%	< 10%	< 10%	20.7%	< 10%	< 10%	12.9%	< 10%	< 10%	< 10%	13.9%	COX-2 SI (human recombinant COX-2): 3.93
CN1c2ccccc2C(=O)N(NC(=O)Nc2ccc(F)cc2)C1c1ccc(F)cc1 (centres unmarked) [Compound 6n, 1-(4-Fluorophenyl)-3-(2–(4-fluorophenyl)-1-methyl-4-oxo-1,4-dihydroquinazolin-3(2H)-yl)urea]	0.65 ± 1.3 µM	39.4 ± 2.25 µM	< 10%	43.1%	16.4%	13.3%	21%	< 10%	< 10%	17.5%	< 10%	12.5%	38.1%	< 10%	< 10%	< 10%	< 10%	< 10%	< 10%	11.7%	COX-2 SI (human recombinant COX-2): 16.12
CN1c2ccccc2C(=O)N(NC(=O)Nc2ccc(F)cc2)C1c1ccc([N+](=O)[O-])cc1 (centres unmarked) [Compound 6o, 1-(4-Fluorophenyl)-3–(1-methyl-2-(4-nitrophenyl)-4-oxo-1,4-dihydroquinazolin-3(2H)-yl)urea]	10.1 ± 1.01 µM	23.4 ± 1.13 µM	< 10%	20.4%	19.8%	< 10%	< 10%	< 10%	< 10%	10.7%	< 10%	< 10%	27.4%	< 10%	< 10%	< 10%	< 10%	< 10%	< 10%	< 10%	
COc1ccc(C2N(NC(=O)Nc3ccc(F)cc3)C(=O)c3ccccc3N2C)cc1 (centres unmarked) [Compound 6p, 1-(4-Fluorophenyl)-3-(2–(4-methoxyphenyl)-1-methyl-4-oxo-1,4-dihydroquinazolin-3(2H)-yl)urea]	9.28 ± 1.04 µM	38.6 ± 1.33 µM	< 10%	11.2%	< 10%	< 10%	< 10%	< 10%	< 10%	< 10%	< 10%	< 10%	< 10%	< 10%	< 10%	< 10%	< 10%	< 10%	< 10%	< 10%	COX-2 SI (human recombinant COX-2): 9.54
